The source of these data is patent US20240209028A1, “CNP COMPOUNDS” (priority 2022, published 2024).

Starred links: 1 amine or outer side, 2 acyl side, 3 side chain; linkers in the order of their positions; H or OH if unused. Positions of bridges follow the written chain, without caps; N, C: chain ends. Residues, ends and D or L forms follow the SMILES beside them. *: point of attachment. C18 diacid = O=C(O)CCCCCCCCCCCCCCCCC(=O)*; γGlu = O=C(O)[C@H](CCC(=O)[*:2])N[*:1]; AEEA = NCCOCCOCC(=O)O

Series [1] can be described thus: Local tolerance of CNP compounds in rats (s.c. injection, histopathology). As to conditions: for local subcutaneous necrosis: 5 days after subcutaneous injections in the rat; for assessment for human subcutaneous administration: based on rat local tolerance. The class given is in vivo, Sprague Dawley rat. The protocol: The purpose of this study was to evaluate the local tissue reaction to subcutaneous injection of CNP compounds in rats.
Procedure: The CNP compounds were formulated according to the principles described in General Methods of Preparation-Method G. Each Sprague Dawley rat (male, 10-11 weeks of age at arrival, Janvier, France) was dosed s.c. with 250 or 350 uL of the same compound (formulation concentration of 1000 nmol/mL) 120 h prior to tissue collection resulting in a total of two injections for each animal (Table 15). Injection site (flank or neck) was alternated across animals within each group and time point.
Animals had access to tap water and food (Altromin 1324) ad libitum. Group size was n=3 for vehicles and positive control, and n=4 for test compounds. Vehicles and compounds were formulated in either 5 mM sodium acetate, 250 mM glycerol, pH 4.0 or 8 mM sodium phosphate, 250 mM glycerol, pH 7.4 as shown in Table 16.
The animals were anesthetized with isoflurane. Via an electric shaving machine, a squared area of fur (2 cm×2 cm) was removed either from the rats' neck or flank area). For dosing, a new injection needle (25G canula, 1 ml syringe) was placed in the middle of the square border closest to the animal's head and the needle was inserted into the skin from the border towards the center of the square. […] On the day of tissue collection, the rats were deeply anaesthetized with isoflurane and euthanized by exsanguination. The injection sites were inspected and scored with regards to pathological lesions. The injection sites were evaluated, and any changes were noted (location, colour, shape and size), and sampled for histology preparation.
The injection sites were removed and fixed in 4% phosphate buffered neutral formaldehyde in sealed plastic containers.
Each injection site was subsequently cut into three sections 0.8 cm, 1.0 cm and 1.2 cm from the square border where the injection needle was placed, and, respectively, these sections represented the injection sites and the adjacent tissue. The tissue was processed, embedded in paraffin and cut in 2-4 μm thin sections, stained with the haematoxylin and eosin (H&E), and evaluated microscopically with a light microscope. Histopathological changes were graded on a 5-level scale (Minimal (Min), Mild (Mil), Moderate (Mod), Marked (Mar) and Severe (Sev)).

Series [2] in a line: CNP local tolerance study in LYD pigs (s.c. injection, histopathology). The class given is in vivo, domestic LYD pig. The procedure, abridged: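 Domestic pigs dosed s.c. mid-back, 100 or 200 μl at approx. 4400 μM, in phosphate pH 6.5 or acetate pH 4.0 buffers with glycerol or propylene glycol; saline as negative control. Sites excised 4 or 5 days post injection, H&E sections graded on 5-level scale; necrosis used as marker.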

Series [3] relates to mouse metatarsal bones. The series can be described thus: Mouse metatarsal bone dissection and culture (ex vivo bone growth). The class given is cell-based, mouse (NMRI). As to conditions: 100 nM, n=8. The protocol: The purpose of this study was to evaluate bone growth after administration of CNP compounds in an ex vivo mouse model.
Procedure: One-day old mouse pups (NMRI, Javier Labs France) were euthanised prior to dissection. All applicable international and internal Novo Nordisk guidelines for care and use of animals were followed. The three middle metatarsal bones were dissected out from each hind paw. The dissected bones were placed in 24-well cell culture plates and cultured in 400 μl a-Minimum Essential Media supplemented with 0.2% BSA, 1% Pen/Strep at 37° C. and 5% CO2. The bones from all animals were randomised into a control group and six CNP compound-treated groups (100 nM; n=8). The medium was changed every 2-3 days. All compounds were formulated according to the principles described in General Methods of Preparation—Method G. Compounds 9435 and 9483 were formulated in A) 5 mM sodium acetate, 250 mM glycerol, pH 4.0 while compounds 9384, 9407, 9480 and 9482 were formulated in B) 8 mM sodium phosphate, 250 mM glycerol, pH 7.4.
Digital pictures were captured on day 0, 4, 7, 11, and 14 using a digital camera attached to a Nikon microscope. The length of each metatarsal bone was measured using ImageJ software and increase in bone length was expressed as percentage change from the length measured at the day of dissection (Mean (SD)).
In Table 27, metatarsal bones were isolated from mice and cultured for up to 14 days. Length was measured every 3-4 days throughout the study and expressed as percentage change from day 0 (Mean (SD)). Statistically significant differences are indicated compared to control group (two-way ANOVA).

[4] abbreviates: LYD pig, s.c., approx. 4400 μM, 4 or 5 days after injection.

`CC[C@H](C)[C@@H]1NC(=O)[C@H](CCCNC(=N)N)NC(=O)[C@H](CC(=O)O)NC(=O)[C@H](CC(C)C)NC(=O)[C@@H]2CCCN2C(=O)[C@H](CC(C)C)NC(=O)CNC(=O)[C@H](Cc2ccccc2)NC(=O)[C@@H](NC(=O)CNC(=O)[C@H](CCC(N)=O)NC(=O)[C@H](CO)NC(=O)[C@H](CC(C)C)NC(=O)CNC(=O)[C@H](CCCCN)NC(=O)[C@H](CCCCN)NC(=O)[C@H](CCC(N)=O)NC(=O)[C@H](C)NC(=O)CNC(=O)[C@H](CCCCN)NC(=O)[C@H](Cc2ccc(O)cc2)NC(=O)[C@H](CCCCN)NC(=O)[C@H](CCCNC(=N)N)NC(=O)[C@H](C)NC(=O)COCCOCCNC(=O)COCCOCCNC(=O)COCCOCCNC(=O)COCCOCCNC(=O)CC[C@H](NC(=O)CC[C@H](NC(=O)CC[C@H](NC(=O)CC[C@H](NC(=O)CC[C@H](NC(=O)CCCCCCCCCCCCCCCCC(=O)O)C(=O)O)C(=O)O)C(=O)O)C(=O)O)C(=O)O)CSSC[C@@H](C(=O)O)NC(=O)CNC(=O)[C@H](CC(C)C)NC(=O)CNC(=O)[C@H](CO)NC(=O)[C@H](CC(C)C)NC(=O)[C@H](CO)NC(=O)CNC1=O` [Compound 9407] ({C18 diacid-γGlu-γGlu-γGlu-γGlu-γGlu-AEEA-AEEA-AEEA-AEEA}-ARKYKGAQKKGLSQGCFGLPLDRIGSLSGLGC-OH; disulfide 16-32): the “Number of injections by severity of necrosis: NAD (No Abnormalities Detected)” value in series [1] (rat, s.c. 350 μl, about 1000 nmol/ml, 5 days post injection) worked out at 4. Besides, in series [2] (setting [4]), the “Number of injections by severity of necrosis: Min.” value is listed as 1 and the “Number of injections by severity of necrosis: NAD” value is 3.
For the molecule `CC[C@H](C)[C@@H]1NC(=O)[C@H](CCCNC(=N)N)NC(=O)[C@H](CC(=O)O)NC(=O)[C@H](CC(C)C)NC(=O)[C@@H]2CCCN2C(=O)[C@H](CC(C)C)NC(=O)CNC(=O)[C@H](Cc2ccccc2)NC(=O)[C@@H](NC(=O)CNC(=O)[C@H](CO)NC(=O)[C@H](CO)NC(=O)[C@@H](NC(=O)CNC(=O)[C@@H](NC(=O)[C@H](Cc2c[nH]cn2)NC(=O)[C@H](CCC(N)=O)NC(=O)[C@H](C)NC(=O)CNC(=O)[C@H](Cc2c[nH]cn2)NC(=O)[C@H](Cc2ccc(O)cc2)NC(=O)[C@H](CCCCN)NC(=O)[C@H](CCCNC(=N)N)NC(=O)[C@H](C)NC(=O)COCCOCCNC(=O)COCCOCCNC(=O)CC[C@H](NC(=O)CCCCCCCCCCCCCCCCC(=O)O)C(=O)O)[C@@H](C)O)C(C)C)CSSC[C@@H](C(=O)O)NC(=O)CNC(=O)[C@H](CC(C)C)NC(=O)CNC(=O)[C@H](CO)NC(=O)[C@H](CC(C)C)NC(=O)[C@H](CO)NC(=O)CNC1=O` [compound 1351] ({C18 diacid-γGlu-AEEA-AEEA}-ARKYHGAQHTGVSSGCFGLPLDRIGSLSGLGC-OH; disulfide 16-32), in series [1], the local subcutaneous necrosis result was “no or mild” and the “assessment for human subcutaneous administration” value (from here on “assessment”) is on record as “acceptable”.
On to `CC[C@H](C)[C@@H]1NC(=O)[C@H](CCCNC(=N)N)NC(=O)[C@H](CC(=O)O)NC(=O)[C@H](CC(C)C)NC(=O)[C@@H]2CCCN2C(=O)[C@H](CC(C)C)NC(=O)CNC(=O)[C@H](Cc2ccccc2)NC(=O)[C@@H](NC(=O)CNC(=O)[C@H](CCCCN)NC(=O)[C@H](CO)NC(=O)[C@@H](NC(=O)CNC(=O)[C@@H](NC(=O)[C@H](Cc2c[nH]cn2)NC(=O)[C@H](CCC(N)=O)NC(=O)[C@H](C)NC(=O)CNC(=O)[C@H](Cc2c[nH]cn2)NC(=O)[C@H](Cc2ccc(O)cc2)NC(=O)[C@H](CCCCN)NC(=O)[C@H](CCCNC(=N)N)NC(=O)[C@H](C)NC(=O)COCCOCCNC(=O)COCCOCCNC(=O)CC[C@H](NC(=O)CC[C@H](NC(=O)CC[C@H](NC(=O)CCCCCCCCCCCCCCCCC(=O)O)C(=O)O)C(=O)O)C(=O)O)[C@@H](C)O)C(C)C)CSSC[C@@H](C(=O)O)NC(=O)CNC(=O)[C@H](CC(C)C)NC(=O)CNC(=O)[C@H](CO)NC(=O)[C@H](CC(C)C)NC(=O)[C@H](CO)NC(=O)CNC1=O` [compound 1420] ({C18 diacid-γGlu-γGlu-γGlu-AEEA-AEEA}-ARKYHGAQHTGVSKGCFGLPLDRIGSLSGLGC-OH; disulfide 16-32), for which, in series [1], the local subcutaneous necrosis entry was “no or mild” and the “assessment” value is on record as “acceptable”.
Consider `CC[C@H](C)[C@@H]1NC(=O)[C@H](CCCNC(=N)N)NC(=O)[C@H](CC(=O)O)NC(=O)[C@H](CC(C)C)NC(=O)[C@@H]2CCCN2C(=O)[C@H](CC(C)C)NC(=O)CNC(=O)[C@H](Cc2ccccc2)NC(=O)[C@@H](NC(=O)CNC(=O)[C@H](CO)NC(=O)[C@H](CO)NC(=O)[C@H](CC(C)C)NC(=O)CNC(=O)[C@H](CCCCN)NC(=O)[C@H](CCCCN)NC(=O)[C@H](CCC(N)=O)NC(=O)[C@H](C)NC(=O)CNC(=O)[C@H](CCCCN)NC(=O)[C@H](Cc2ccc(O)cc2)NC(=O)[C@H](CCCCN)NC(=O)[C@H](CCCNC(=N)N)NC(=O)[C@H](C)NC(=O)[C@H](CCC(N)=O)NC(=O)[C@@H]2CCCN2C(=O)[C@H](Cc2c[nH]cn2)NC(=O)[C@H](CCC(=O)O)NC(=O)[C@H](CCC(N)=O)NC(=O)CC[C@H](NC(=O)CC[C@H](NC(=O)CC[C@H](NC(=O)CC[C@H](NC(=O)CC[C@H](NC(=O)CCCCCCCCCCCCCCCCC(=O)O)C(=O)O)C(=O)O)C(=O)O)C(=O)O)C(=O)O)CSSC[C@@H](C(=O)O)NC(=O)CNC(=O)[C@H](CC(C)C)NC(=O)CNC(=O)[C@H](CO)NC(=O)[C@H](CC(C)C)NC(=O)[C@H](CO)NC(=O)CNC1=O` [compound 9482] ({C18 diacid-γGlu-γGlu-γGlu-γGlu-γGlu}-QEHPQARKYKGAQKKGLSSGCFGLPLDRIGSLSGLGC-OH; disulfide 21-37), for which the “Increase in bone length, mean (%) change from day 0” value came out at 37.7% in series [3] (day 4 in culture), 47.1% in series [3] (day 7 in culture), 54.4% in series [3] (day 11 in culture) and 57.5% in series [3] (day 14 in culture). Besides, in series [2] (5 days after subcutaneous injections in the pig), the local subcutaneous necrosis result is recorded as “no”. For the same molecule, the “assessment” value in series [2] (based on pig local tolerance) is given as “acceptable”.
For `CC[C@H](C)[C@@H]1NC(=O)[C@H](CCCNC(=N)N)NC(=O)[C@H](CCC(=O)O)NC(=O)[C@H](CC(C)C)NC(=O)[C@@H]2CCCN2C(=O)[C@H](CC(C)C)NC(=O)CNC(=O)[C@H](Cc2ccccc2)NC(=O)[C@@H](NC(=O)CNC(=O)[C@H](CO)NC(=O)[C@H](CO)NC(=O)[C@H](CC(C)C)NC(=O)CNC(=O)[C@H](CCCCN)NC(=O)[C@H](CCCCN)NC(=O)[C@H](CCC(N)=O)NC(=O)[C@H](C)NC(=O)CNC(=O)[C@H](CCCCN)NC(=O)[C@H](Cc2ccc(O)cc2)NC(=O)[C@H](CCCCN)NC(=O)[C@H](CCCNC(=N)N)NC(=O)[C@H](C)NC(=O)[C@H](CCC(N)=O)NC(=O)[C@@H]2CCCN2C(=O)[C@H](Cc2c[nH]cn2)NC(=O)[C@H](CCC(=O)O)NC(=O)[C@H](CCC(N)=O)NC(=O)CC[C@H](NC(=O)CC[C@H](NC(=O)CC[C@H](NC(=O)CC[C@H](NC(=O)CCCCCCCCCCCCCCCCC(=O)O)C(=O)O)C(=O)O)C(=O)O)C(=O)O)CSSC[C@@H](C(=O)O)NC(=O)CNC(=O)[C@H](CC(C)C)NC(=O)CNC(=O)[C@H](CO)NC(=O)[C@H](CC(C)C)NC(=O)[C@H](CO)NC(=O)CNC1=O` [compound 9483] ({C18 diacid-γGlu-γGlu-γGlu-γGlu}-QEHPQARKYKGAQKKGLSSGCFGLPLERIGSLSGLGC-OH; disulfide 21-37), the “Increase in bone length, mean (%) change from day 0” value came out at 30.2% in series [3] (day 4 in culture), 39.5% in series [3] (day 7 in culture), 49.7% in series [3] (day 11 in culture) and 51.5% in series [3] (day 14 in culture). Besides, the local subcutaneous necrosis result in series [2] (pig, in vivo, sc) is recorded as “no to moderate”.
